Read-outs that look alike come from different tables or passages of the source.
Experiments:
[1] = pharmacokinetics after single intravenous dose in cynomolgus monkey; type: in vivo; conditions: for t1/2: in vivo, iv, 2.5 mg/kg; for terminal elimination half-life (t1/2) compared to rapamycin: 2.5 mg/kg intravenous
[2] = test system: human mixed lymphocyte reaction (MLR); test: human mixed lymphocyte reaction (MLR) assay; type: cell-based; conditions: read-out: Human MLR IC50 ± S.E.M.
[3] = test system: in-stent neointima formation in coronary arteries of adult miniature swine; test: safety and efficacy of ABT-578 dosages on in-stent neointima formation, BiodivYsio OC stent in swine; type: in vivo, Yucatan miniature swine
Procedure: The purpose of this example was to evaluate the safety and efficacy of different drug dosages on neointima formation. […] In-stent neointima formation was measured at […] time intervals; 3 days, 1 month, and 3 months in the coronary arteries of adult miniature swine. Forty (40) animals were studied at each time interval (10 animals per dose). Each animal received one drug-coated stent and one control stent. The control stent contained no drug.
Potential local tissue toxicity was assessed at all time intervals by examining histopathologic changes in the stented region, adjacent coronary segments, perivascular tissue, and subserved myocardium. The mortality, angiographic implant and restudy data, histomorphometry data, and stent site histopathology were studied.

[4] = loading and release of ABT-578 from 15 mm BiodivYsio drug delivery stents; type: physicochemical; conditions: 15 mm BiodivYsio stents, 0.01 M phosphate buffer pH 6.0
Procedure: Twelve individual polymer-coated stents were placed on fixtures designed to hold the stent in a vertical position and the stents were immersed vertically in the drug solution for five minutes. The stents and fixtures were removed from the vials and excess drug solution was blotted away by contacting the stents with an absorbant material. The stents were then allowed to dry in air for 30 minutes in an inverted vertical position.
The stents were removed from the fixtures, and each stent was placed into 50/50 acetonitrile/phosphate buffer (pH 5.1, 2.0 ml) and sonicated for one hour. The stents were removed from the solution and solutions were assayed for concentration of drug, which allowed calculation of the amount of drug originally on the stents. This method was independently shown to remove at least 95% of the drug from the stent coating. On average, the stents contained 60 micrograms of drug ±20 micrograms.
The drug-loaded stents were placed on the fixtures and placed into 0.01 M phosphate buffer (pH=6.0, 1.9 ml) in individual vials. These samples were placed onto an Eberbach shaker set at low speed to provide back-and-forth agitation. To avoid approaching drug saturation in the buffer, the stents were transferred periodically to fresh buffer vials at the following points: 15, 30, 45, 60, 120, 135, 150, 165, 180, 240, 390 minutes. The dissolution buffer vials were assayed by HPLC for the drug concentration at the end of the drug release period studied. The data, represented as % cumulative release of the drug as a function of time, is shown in tabular form below: […]

[5] = test system: neointimal hyperplasia in porcine coronary arteries containing stents; test: porcine coronary stent model, A-179578 eluted from BiodivYsio PC coronary stent, 28 days; type: in vivo
Excerpt: The control stents are polymer-coated without drugs. This is important, for the polymer itself must not stimulate neointimal hyperplasia to a substantial degree. As the eluted drug disappears, an inflammatory response to the polymer could conceivably result in a late “catch-up phenomenon” where the restenosis process is not stopped, but instead slowed. This phenomenon would result in restenosis at late dates in human subjects.
Stents were implanted in two blood vessels in each pig. Pigs used in this model were generally 2-4 months old and weighed 30-40 kg. Two coronary stents were thus implanted in each pig by visually assessing a “normal” stent:artery ratio of 1.1-1.2.
Beginning on the day of the procedure, pigs were given oral aspirin (325 mg daily) and continued for the remainder of their course. General anesthesia was achieved by means of intramuscular injection followed by intravenous ketamine (30 mg/kg) and xylazine (3 mg/kg). Additional medication at the time of induction included atropine (1 mg) and flocillin (1 g) administered intramuscularly. During the stenting procedure, an intraarterial bolus of 10,000 units of heparin was administered.
Arterial access was obtained by cutdown on the right external carotid and placement of an 8F sheath. After the procedure, the animals were maintained on a normal diet without cholesterol or other special supplementation.
The BiodivYsio stent was used with nominal vessel target size of 3.0 mm. Two coronary arteries per pig were assigned at random to deployment of the stents. The stent was either a drug eluting stent (polymer plus drug stent) or a stent coated with a polymer only (polymer only stent). The stents were delivered by means of standard guide catheters and wires. The stent balloons were inflated to appropriate sizes for less than 30 seconds.
Each pig had one polymer only stent and one polymer plus drug stent placed in separate coronary arteries, so that each pig would have one stent for drug and one for control. A sample size of 20 pigs total was chosen to detect a projected difference in neointimal thickness of 0.2 mm with a standard deviation of 0.15 mm, at a power of 0.95 and […] 0.02.
Animals were euthanized at 28 days for histopathologic examination and quantification. Following removal of the heart from the perfusion pump system, the left atrial appendage was removed for access to the proximal coronary arteries. Coronary arterial segments with injuries were dissected free of the epicardium. Segments containing lesions were isolated, thereby allowing sufficient tissue to contain uninvolved blood vessel at either end. […]
The severity of vessel injury and the neointimal response were measured by calibrated digital microscopy. […]

[6] = rate of release of A-179578 from 316L stainless steel coupons coated with PC polymer; type: physicochemical; conditions: PC polymer coated 316L coupons, 0.01 M phosphate buffer pH 6.0
Excerpt: Rubber septa from lids from HPLC vials were removed from the vials and placed into glass vials so that the “Teflon” side faced up. These septa served as supports for the test samples. The test samples were 316L stainless steel coupons that had been previously coated with a biocompatible polymer containing phosphorylcholine side groups (PC polymer). Coronary stents are commonly made of 316L stainless steel and can be coated with the PC polymer to provide a depot site for loading drugs. The coated coupons, which serve to simulate stents, were placed onto the septa. By using a glass Hamilton Syringe, a solution of A-179578 and ethanol (10 μl) was applied to the surface of each coupon. The solution contained A-179578 (30.6 mg) dissolved in 100% ethanol (3.0 ml). The syringe was cleaned with ethanol between each application. The cap to the glass vial was placed on the vial loosely, thereby assuring proper ventilation. The coupon was allowed to dry for a minimum of 1.5 hours. Twelve (12) coupons were loaded in this way, six being used to determine the average amount of drug loaded onto the device and six being used to measure the time needed to release the drug from the devices.
The coupon was placed onto a 5210 Branson sonicator for one hour. The coupon was then removed from the solution, and the solution was assayed by HPLC.
The time release studies were performed by immersing and removing the individual coupons from fresh aliquots (10.0 ml) of 0.01 M phosphate buffer at a pH of 6.0 at each of the following time intervals; 5, 15, 30 and 60 minutes. For the remaining time points of 120, 180, 240, 300, 360 minutes, volumes of 5.0 ml of buffer were used. To facilitate mixing during the drug release phase, the samples were placed onto a Eberbach shaker set at low speed. All solution aliquots were assayed by HPLC after the testing of the last sample was completed.
The HPLC analysis was performed with a Hewlett Packard series 1100 instrument having the following settings: Injection Volume is 100 μl; Acquisition Time is 40 minutes; Flow Rate is 1.0 ml/min; Column Temperature is 40 degrees Celsius; Wavelength is 278 nm; Mobile Phase is 65% Acetonitrile/35% H2O; and Column is YMC ODS-A S5 μm, 4.6×250 mm (Part No. A12052546WT).

[7] = one month, dose groups 3 and 4 vs control
[8] = porcine coronary artery, 28 days

Question: Which t1/2 [1] does the source give for “40-epi-N-[2′-pyridone]-rapamycin [Example 2-pyridone, reference compound]” here?
Answer: The t1/2 was 2.8 h.

Question: What about the IC50 [2] of the same compound?
Answer: The IC50 was 12.4 ± 5.3 nM.

Question: With CO[C@H]1C[C@@H]2CC[C@@H](C)[C@@](O)(O2)C(=O)C(=O)N2CCCC[C@H]2C(=O)O[C@H]([C@H](C)C[C@@H]2CC[C@H](n3cnnn3)[C@H](OC)C2)CC(=O)[C@H](C)/C=C(\C)[C@@H](O)[C@@H](OC)C(=O)[C@H](C)C[C@H](C)/C=C/C=C/C=C/1C [Example 1C, 42-(1-tetrazolyl)-rapamycin] as the compound, how does the “local coronary arterial wall toxicity (medial necrosis or stent malapposition)” value ([3]; any dose group incl. approximately 27 μg/mm, any time interval) read?
Answer: Its value is “no local coronary arterial wall toxicity”.

Question: And the “histologic % stenosis” value ([3]; one month, dose group 3 vs control)?
Answer: Its value is “tendency towards decreased”.

Question: What about the “Intima area normalized to injury score” value ([3]; one month, dose groups 3 and 4 (10 and 27 μg/mm) vs control) of the same compound?
Answer: Its value is “significantly decreased”.

Question: What about the “absolute intima area” value [3, 7] of the same compound?
Answer: The value was “trends for decreases”.

Question: What about the “intima thickness” value [3, 7] of the same compound?
Answer: The value was “trends for decreases”.

Question: What about the “vessel wall toxicity” value ([3]; one month, even at the highest dose (27 μg/mm)) of the same compound?
Answer: The value was “no evidence of vessel wall toxicity”.

Question: And the “neointima formation in stented coronary arteries” value ([3]; one-month group, locally eluted)?
Answer: The value was “significant inhibitory effect”.

Question: And the “endothelial recovery over the stent struts” value ([3]; three days after implant, regardless of dosage)?
Answer: Its value is “did not appear retarded”.

Question: What about the “neointima cross-sectional area and % area stenosis of the lumen” value ([3]; three-month period) of the same compound?
Answer: Its value is “weak trends for decreases”.

Question: What about the “histomorphometric parameters of stented coronary arterial dimension” value ([3]; three-month period, between the dose groups) of the same compound?
Answer: Its value is “no significant differences”.

Question: What about the “terminal elimination half-life (t1/2) compared to rapamycin” value [1] of the same compound?
Answer: The value was “substantially shorter”.

Question: What about the “% Cumulative Release of Drug” value ([4]; 15 min) of the same compound?
Answer: The value was 0.3%.

Question: What about the “% Cumulative Release of Drug” value ([4]; 30 min) of the same compound?
Answer: Its value is 1.1%.

Question: And the “% Cumulative Release of Drug” value ([4]; 45 min)?
Answer: Its value is 2.1%.

Question: And the “% Cumulative Release of Drug” value ([4]; 60 min)?
Answer: The value was 3.2%.

Question: And the “% Cumulative Release of Drug” value ([4]; 120 min)?
Answer: Its value is 4.3%.

Question: What about the “% Cumulative Release of Drug” value ([4]; 135 min) of the same compound?
Answer: Its value is 5.9%.

Question: And the “% Cumulative Release of Drug” value ([4]; 150 min)?
Answer: Its value is 6.3%.

Question: And the “% Cumulative Release of Drug” value ([4]; 165 min)?
Answer: Its value is 6.8%.

Question: And the “% Cumulative Release of Drug” value ([4]; 180 min)?
Answer: Its value is 7.4%.

Question: What about the “% Cumulative Release of Drug” value ([4]; 240 min) of the same compound?
Answer: Its value is 10.8%.

Question: And the “% Cumulative Release of Drug” value ([4]; 390 min)?
Answer: The value was 13.2%.

Question: For COC1CC2CCC(C)C(O)(O2)C(=O)C(=O)N2CCCCC2C(=O)OC(C(C)CC2CCC(n3ccc(=O)cc3)C(OC)C2)CC(=O)C(C)C=C(C)C(O)C(OC)C(=O)C(C)CC(C)C=CC=CC=C1C (stereo not drawn) [Example 4-pyridone, 40-epi-N-[4′-pyridone]-rapamycin, reference compound], which t1/2 [1] is on record?
Answer: The t1/2 was 13.3 h.

Question: What about the IC50 [2] of the same compound?
Answer: Its IC50 is 0.43 ± 0.2 nM.

Question: Which “terminal elimination half-life (t1/2) compared to rapamycin” value [1] does the source give for CO[C@H]1C[C@@H]2CC[C@@H](C)[C@@](O)(O2)C(=O)C(=O)N2CCCC[C@H]2C(=O)O[C@H]([C@H](C)C[C@@H]2CC[C@H](n3ncnn3)[C@H](OC)C2)CC(=O)[C@H](C)/C=C(\C)[C@@H](O)[C@@H](OC)C(=O)[C@H](C)C[C@H](C)/C=C/C=C/C=C/1C [Example 1B, 42-(2-tetrazolyl)-rapamycin] here?
Answer: Its value is “substantially shorter”.

Question: Which IC50 ([2]; Homo sapiens, Lymphocyte) does the source give for CO[C@H]1C[C@@H]2CC[C@@H](C)[C@@](O)(O2)C(=O)C(=O)N2CCCC[C@H]2C(=O)O[C@H]([C@H](C)C[C@@H]2CC[C@@H](O)[C@H](OC)C2)CC(=O)[C@H](C)/C=C(\C)[C@@H](O)[C@@H](OC)C(=O)[C@H](C)C[C@H](C)/C=C/C=C/C=C/1C [Rapamycin] here?
Answer: The IC50 was 0.91 ± 0.36 nM.

Question: With COC1CC2CCC(C)C(O)(O2)C(=O)C(=O)N2CCCCC2C(=O)OC(C(C)CC2CCC(n3cnnn3)C(OC)C2)CC(=O)C(C)C=C(C)C(O)C(OC)C(=O)C(C)CC(C)C=CC=CC=C1C (centres unmarked) [Example 1C, 42-(1-tetrazolyl)-rapamycin] as the compound, how does the “lumen area vs polymer only stent” value [5, 8] read?
Answer: Its value is “greater lumen area”.

Question: What about the “neointimal area vs polymer only stent” value [5, 8] of the same compound?
Answer: Its value is “lower neointimal area”.

Question: What about the “neointimal thickness vs polymer only stent” value [5, 8] of the same compound?
Answer: The value was “lower neointimal thickness”.

Question: What about the “neointimal hyperplasia” value ([5]; stent with polymer placed in porcine coronary artery) of the same compound?
Answer: Its value is “reduction in neointimal hyperplasia”.

Question: What about the “Percent Release” value ([6]; 0.00 min) of the same compound?
Answer: Its value is 0.00.

Question: And the “Percent Release” value ([6]; 5.00 min)?
Answer: The value was 1.87.

Question: And the “Percent Release” value ([6]; 15.00 min)?
Answer: The value was 2.97.

Question: And the “Percent Release” value ([6]; 30.00 min)?
Answer: Its value is 3.24.

Question: What about the “Percent Release” value ([6]; 60.00 min) of the same compound?
Answer: The value was 3.29.

Question: And the “Percent Release” value ([6]; 180.00 min)?
Answer: Its value is 4.36.

Question: And the “Percent Release” value ([6]; 240.00 min)?
Answer: The value was 4.37.

Question: What about the “Percent Release” value ([6]; 300.00 min) of the same compound?
Answer: The value was 6.34.

Question: What about the “Percent Release” value ([6]; 360.00 min) of the same compound?
Answer: The value was 7.88.

— US7812032B2 (Abbott Laboratories, priority 2006, dated 2010)
